Test results published in PubChem BioAssay (NCI).
Values joined by “and” are separate entries in the source; they are usually repeats but may differ in a detail not shown here. Identical values can stand only once.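 Results reflect a 48-hour exposure of cells in 96-well plates to compound at five concentrations. GI50: concentration for 50% inhibition of growth. TGI: total growth inhibition.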

How the values were obtained:
Assay in all cases: NCI-60 cell line screen, 48 h
[1] = tested on: SK-MEL-28 melanoma
[2] = tested on: K-562 leukemia
[3] = tested on: SR leukemia
[4] = tested on: CAKI-1 renal
[5] = tested on: DU-145 prostate
[6] = tested on: OVCAR-3 ovarian
[7] = tested on: ACHN renal
[8] = tested on: NCI-H226 lung
[9] = tested on: MDA-MB-231 breast
[10] = tested on: HOP-62 NSCLC

| Structure (SMILES) | TGI [1] | TGI [2] | TGI [3] | TGI [4] | TGI [5] | TGI [6] | TGI [7] | TGI [8] | TGI [9] | TGI [10] | GI50 [1] | GI50 [2] | GI50 [3] | GI50 [4] | GI50 [5] | GI50 [6] | GI50 [7] | GI50 [8] | GI50 [9] | GI50 [10] |
| --- | --- | --- | --- | --- | --- | --- | --- | --- | --- | --- | --- | --- | --- | --- | --- | --- | --- | --- | --- | --- |
| Cc1cc(Oc2cnc(=O)[nH]c2)cs1 | > 100 µM | > 100 µM | > 100 µM | > 100 µM | > 100 µM | > 100 µM | > 100 µM | > 100 µM | > 100 µM | > 100 µM | – | – | – | – | – | – | – | – | – | – |
| COc1ccc2c(c1)c1nc3cc(C)c(C)cc3nc1n2CCN(C)C | 3.29 µM | 2.43 µM | 4.81 µM | 2.1 µM | 2.37 µM | 2.55 µM | 1.48 µM | 2.97 µM | 2.76 µM | 3.37 µM | 1.65 µM | 0.431 µM | 0.428 µM | 0.632 µM | 1.06 µM | 1.13 µM | 0.375 µM | 1.01 µM | 1.17 µM | 0.899 µM |
| NC(=S)N/N=C/c1ccc(O)cn1 | > 1500 µM and 1050 µM | 55.2 µM and 439 µM | > 323 µM | 178 µM and 339 µM | 314 µM | > 1500 µM and 240 µM | 40.8 µM and 16.1 µM | 83.7 µM and 374 µM | > 427 µM | 35.7 µM and 16.9 µM and 74.6 µM | 49.9 µM and 41.6 µM | 12.3 µM and 7.25 µM | – | 32.1 µM and 21.8 µM and 8.53 µM | – | 19.9 µM and 5.16 µM | 4.14 µM | 29.7 µM | – | 10.6 µM and 5.65 µM |
| Clc1cccc(N2CCN(CCN3CCc4c([nH]c5ccccc45)C3c3cccnc3)CC2)c1 (stereo unspecified) | > 100 µM | > 65.4 µM | > 100 µM | > 100 µM | > 31.6 µM | > 100 µM | > 100 µM | > 62.4 µM | > 100 µM | > 86.8 µM | – | – | – | – | – | – | – | – | – | – |
| COc1cc2c(cc1OC)-c1ccc3cc4c(cc3c1N(CCN(C)C)C2)OCO4 | 17.3 µM | 1.57 µM | 2.63 µM | 11.4 µM | 8.76 µM | 2.28 µM | 3.1 µM | 2.52 µM | 5.31 µM | 3.97 µM | 3.04 µM | 0.262 µM | 0.0524 µM | 0.596 µM | 0.377 µM | 0.593 µM | 0.588 µM | 0.772 µM | 1.63 µM | 0.373 µM |
| CCCOC(=O)N[C@H]1CCc2cc(OC)c(OC)c(OC)c2-c2ccc(SC)c(=O)cc21 | > 68.1 µM | 24.1 µM | > 56.3 µM | 24.2 µM | > 100 µM | < 0.0238 µM | 15.7 µM | 10.6 µM | 25.5 µM | > 100 µM | 10.1 µM | < 0.01 µM | < 0.01 µM | < 0.0201 µM | < 0.01 µM | < 0.01 µM | < 0.01 µM | < 0.01 µM | < 0.01 µM | < 0.01 µM |
| OC(C1CO1)C(O)C1CO1 (stereo unspecified) | 144 µM and 239 µM | 150 µM | 72.2 µM and 528 µM | 91.5 µM and 158 µM | 109 µM and 154 µM | 98.7 µM and 286 µM | 52.2 µM and 156 µM | 136 µM and 412 µM | 69.6 µM and 377 µM | 36.5 µM and 99.7 µM | – | 62.5 µM | – | 15 µM and 5.46 µM | 6.7 µM | 101 µM | – | 47.7 µM and 122 µM | 63 µM | 8.57 µM |
| CN1C(=O)C(=Cc2cn(Cc3ccccc3)c3ccccc23)C(=O)N(C)C1=O | > 100 µM | > 100 µM | > 100 µM | > 25.5 µM | > 100 µM | > 100 µM | > 100 µM | 27.8 µM | > 100 µM | > 100 µM | > 70.2 µM | 5.08 µM | 43.1 µM | – | 87.2 µM | 20.8 µM | 51.8 µM | 3.46 µM | 54.1 µM | 43 µM |
| O=C1NC(=O)C(c2ccc(Cl)cc2)=C1Nc1ccc(Cl)c(C(=O)O)c1 | > 25 µM | > 25 µM | > 25 µM | > 25 µM | > 25 µM | > 25 µM | > 25 µM | > 25 µM | > 25 µM | > 25 µM | > 25 µM | > 25 µM | > 25 µM | > 25 µM | > 25 µM | > 25 µM | > 25 µM | > 25 µM | > 25 µM | > 25 µM |
| C[n+]1c2ccccc2c(Nc2ccc(NS(=O)(=O)CCCCN=C(N)N)cc2)c2ccc(N)cc21 | > 72.3 µM | > 100 µM | > 26.3 µM | > 100 µM | 66.4 µM | > 80.2 µM | > 100 µM | 31.2 µM | > 100 µM | 26.6 µM | 11.2 µM | 2.6 µM | 0.138 µM | 10.1 µM | 0.163 µM | 10.2 µM | 2.79 µM | 0.128 µM | 43.6 µM | 0.217 µM |
| c1cncc(-c2nc3ccccc3s2)c1 | > 100 µM | > 100 µM | > 100 µM | > 100 µM | > 100 µM | > 100 µM | > 100 µM | > 100 µM | > 100 µM | > 100 µM | > 100 µM | > 100 µM | > 100 µM | > 100 µM | > 100 µM | > 100 µM | 95.1 µM | > 100 µM | > 100 µM | > 100 µM |
| COc1ccc(-c2cn(-c3cccc(C(=O)/C=C/c4ccc(O)c(OC)c4)c3)c(=O)[nH]2)cc1 | 4.51 µM | > 37.7 µM | > 100 µM | 50.4 µM | 9.27 µM | 7.37 µM | 6.22 µM | > 59.5 µM | > 54.3 µM | > 100 µM | 1.99 µM | 4.71 µM | 2.24 µM | 5.79 µM | 3.02 µM | 2.48 µM | 2.55 µM | 5.25 µM | 4.06 µM | 8.85 µM |
| O=C1c2cc(-c3ccccc3)ccc2-c2c1c1ccc([N+](=O)[O-])cc1c(=O)n2CCCBr | > 50 µM | > 12.2 µM | > 15.1 µM | > 50 µM | > 50 µM | > 50 µM | > 50 µM | > 50 µM | > 50 µM | > 50 µM | > 50 µM | – | – | > 50 µM | > 50 µM | > 50 µM | > 36.3 µM | > 47.4 µM | > 38.9 µM | > 30.2 µM |
| CC(=O)OCc1ccc(O)c(C=O)c1 | > 100 µM | > 100 µM | > 100 µM | > 100 µM | > 100 µM | > 100 µM | > 100 µM | > 100 µM | > 100 µM | > 100 µM | – | – | – | – | – | – | – | – | – | – |
| Cc1ccc(C(=O)N2CCN(C(=O)c3ccc(C)cc3)c3ccccc32)cc1 | > 100 µM | > 100 µM | > 100 µM | 82.7 µM | > 100 µM | 10.6 µM | > 100 µM | > 79.8 µM | > 100 µM | > 100 µM | – | – | – | – | – | – | – | – | – | – |
| COc1cc2c(cc1OC)C(CC1(O)CCCCC1)N(S(=O)(=O)c1ccc(C)cc1)CC2 (stereo unspecified) | > 10 µM | > 10 µM | > 10 µM | > 10 µM | > 10 µM | > 10 µM | > 10 µM | > 10 µM | > 10 µM | > 10 µM | > 10 µM | > 10 µM | > 10 µM | > 10 µM | > 10 µM | > 10 µM | > 10 µM | > 10 µM | > 10 µM | > 10 µM |
